Data reported in ChEMBL document CHEMBL3243956, “Plant antitumor agents. 17. Structural requirements for antineoplastic activity in quassinoids” (1978).

Legend:
Format in all cases: functional
[1] = tested on: P388; experiment: Antileukemic activity against mouse P388 cells allografted in mouse assessed as increase in host survival at 0.25 mg/kg relative to control
[2] = tested on: P388; experiment: Antileukemic activity against mouse P388 cells allografted in mouse assessed as increase in host survival at 1 mg/kg relative to control
[3] = tested on: P388; experiment: Antileukemic activity against mouse P388 cells allografted in mouse assessed as increase in host survival at 0.5 mg/kg relative to control
[4] = tested on: P388; experiment: Antileukemic activity against mouse P388 cells allografted in mouse assessed as increase in host survival at 2 mg/kg relative to control
[5] = tested on: P388; experiment: Antileukemic activity against mouse P388 cells allografted in mouse assessed as increase in host survival at 4 mg/kg relative to control
[6] = tested on: P388; experiment: Antileukemic activity against mouse P388 cells allografted in mouse assessed as increase in host survival at 8 mg/kg relative to control
[7] = tested on: P388; experiment: Antileukemic activity against mouse P388 cells allografted in mouse assessed as increase in host survival at 1.25 mg/kg relative to control
[8] = tested on: P388; experiment: Antileukemic activity against mouse P388 cells allografted in mouse assessed as increase in host survival at 5 mg/kg relative to control
[9] = tested on: P388; experiment: Antileukemic activity against mouse P388 cells allografted in mouse assessed as increase in host survival at 10 mg/kg relative to control
[10] = tested on: P388; experiment: Antileukemic activity against mouse P388 cells allografted in mouse assessed as increase in host survival at 2.5 mg/kg relative to control

Row | SMILES | T/C [1] | T/C [2] | T/C [3] | T/C [4] | T/C [5] | T/C [6] | T/C [7] | T/C [8] | T/C [9] | T/C [10]
1 | CC(C)=CC(=O)O[C@@H]1[C@H]2C(C)=CC(=O)[C@H](O)[C@]2(C)[C@H]2[C@]3(O)OC[C@@]24[C@@H]1OC(=O)C[C@H]4[C@@H](C)[C@H]3O | 145% | 198% | 161% | 191% | – | – | – | – | – | –
2 | CC(=O)O[C@@H]1C(=O)C=C(C)[C@@H]2[C@@H](OC(=O)C=C(C)C)[C@H]3OC(=O)C[C@H]4[C@@H](C)[C@@H](O)[C@]5(O)OC[C@]34[C@H]5[C@@]12C | – | 121% | 118% | 132% | 142% | 142% | – | – | – | –
3 | CC(=O)O[C@@H]1[C@H](C)[C@@H]2CC(=O)O[C@@H]3[C@H](OC(=O)C=C(C)C)[C@H]4C(C)=CC(=O)[C@@H](OC(C)=O)[C@]4(C)[C@H]4[C@@]1(O)OC[C@@]342 | – | – | – | – | – | – | 104% | 107% | 107% | 107%
4 | CC(=O)OC[C@]12[C@@H]3OC(=O)C[C@H]1[C@@H](C)[C@@H](OC(C)=O)C(=O)[C@@H]2[C@@]1(C)[C@H](OC(C)=O)C(=O)C=C(C)[C@@H]1[C@H]3OC(=O)C=C(C)C | – | 97% | 100% | 102% | 101% | 102% | – | – | – | –
